The values below come from patent US12662518B2, “Engineered peptide and peptide mimetic compositions and methods” (The Wistar Institute of Anatomy and Biology, priority 2019, dated 2026).

Broadly, the Kd is the free concentration of one partner at which half of the binding sites on the other are occupied at equilibrium, for simple one-to-one binding.

The target in experiment [1] is T1, human recombinant VDAC (Homo sapiens, UniProt P21796).
T1 construct: The cleaved, full length hVDAC1 was collected from the HS-HQ flow through; hexahistidine-SUMO (N, cleaved yes); made in house; host or cells: E. coli ScarabXpress T7 lac
T1 sequence (P21796 whole entry): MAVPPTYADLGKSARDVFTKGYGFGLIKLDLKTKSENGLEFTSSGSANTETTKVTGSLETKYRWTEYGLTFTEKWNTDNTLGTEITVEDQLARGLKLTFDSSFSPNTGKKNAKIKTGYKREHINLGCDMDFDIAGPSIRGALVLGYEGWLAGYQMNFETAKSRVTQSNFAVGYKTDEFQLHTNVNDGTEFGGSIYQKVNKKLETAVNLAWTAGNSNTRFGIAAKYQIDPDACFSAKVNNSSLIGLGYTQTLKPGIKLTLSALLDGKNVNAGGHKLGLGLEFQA
Kind of experiment: isothermal titration calorimetry (ITC). The note with it: 20° C. The class given is binding. The protocol: Expression and purification of human VDAC1. A full length human VDAC1 cDNA (hVDAC1) was cloned into pET28b vector containing an N-terminal hexahistidine-SUMO fusion tag, with a flexible linker cleavable by tobacco etch virus (TEV) protease. The hVDAC1 was expressed in E. coli ScarabXpress T7 lac competent cells (Scarab genomics) for 16 h at 16° C. using 1 mM IPTG (Denville Scientific Inc.). The cells were harvested by centrifugation and lysed on ice via sonication in buffer containing 25 mM Tris-HCl (pH 7.5), 1 M Urea, 1 M KCl, 5% glycerol, 1 mM Benzamidine and 1 mM PMSF (Ni Buffer A). The lysate was centrifuged at 18,000 rpm for 20 min at 4° C. The cell pellet was first washed extensively in Ni Buffer A with 1% Triton X-100 and then solubilized in buffer containing 20 mM Tris-HCl (pH 7.9), 500 mM NaCl, 4 M guanidine-HCl and 10% glycerol for 45 min with gentle stirring. The supernatant was collected following centrifugation at 20,000 rpm for 10 min at 4° C. The protein was then purified over nickel-nitrilotriacetic acid (Ni-NTA—Qiagen) column and buffer-exchanged to 25 mM Tris-HCl (pH 7.5), 500 mM KCl, 5% glycerol, 1 mM benzamidine and 1 mM PMSF (Ni buffer C) with 2% n-Octylglucoside (Research Products International). The protein was then eluted with 300 mM imidazole and treated overnight with TEV at 4° C. to cleave the His-SUMO tag. […]
In general terms: Isothermal titration calorimetry measures the heat released or taken up as one component is titrated into another.

Experiment [2] relates to PC3 cells. Kind of experiment: cytochrome c release from tumor cells, Western blotting. The note with it: supernatants vs mitochondrial extracts. The class given is cell-based, human. For orientation: Immunoblotting shows a protein as a band on a membrane.
For experiment [3], the system named is isolated tumor (PC3) mitochondria. In words: high-throughput assay for depolarization of isolated tumor (PC3) mitochondria, TMRE staining. The note with it: MFF peptides 20 μM. The class given is biochemical, human. The protocol: Analysis of mitochondrial membrane potential. […] In some experiments, PC3 cells were treated with cell-permeable scrambled peptide or cell-permeable MFF #8-11 peptide, washed three times in PBS, pH 7.4, and analyzed on a FACSCalibur flow cytometer, with the TMRE signal as FL1. Intact cells were gated in the FSC/SSC plot to exclude small debris. Cells treated with 20 μM FCCP 10 min prior to TMRE staining were used as a negative control. The resulting FL1 data were plotted on a histogram. For quantification of membrane potential of purified mitochondria, mitochondria isolated from PC3 cells (50 μg) were suspended in 400 μl of SB buffer (0.2 M sucrose, 10 mM Tris-MOPS, pH 7.4, 5 mM succinate, 1 mM sodium phosphate, 10 μM EGTA-Tris, 2 μM rotenone). […] After two washes with SB buffer, mitochondria were recovered by centrifugation at 6000×g for 10 min, suspended in 100 μl of SB buffer and mitochondrial membrane potential was quantified on a florescence microplate reader (Ex/Em=535/595 nm, Beckman Coulter). Samples treated with 2 mM CaCl2 were used as control for the lowest membrane potential (fully depolarized state).

Experiment [4] deals with mitochondria of normal BPH-1 cells. Kind of experiment: depolarization of isolated mitochondria of normal BPH-1 cells, TMRE staining. The class given is biochemical, human. The note with it: peptide #8 10-30 μM.
The target in experiment [5] is T2, MFF-PTP complex (MFF and VDAC or HK-I) (Homo sapiens, UniProt P21796).
T2 construct: VDAC and HK-I are endogenous
T2 sequence (P21796 2-283 limits assumed, one chain of several): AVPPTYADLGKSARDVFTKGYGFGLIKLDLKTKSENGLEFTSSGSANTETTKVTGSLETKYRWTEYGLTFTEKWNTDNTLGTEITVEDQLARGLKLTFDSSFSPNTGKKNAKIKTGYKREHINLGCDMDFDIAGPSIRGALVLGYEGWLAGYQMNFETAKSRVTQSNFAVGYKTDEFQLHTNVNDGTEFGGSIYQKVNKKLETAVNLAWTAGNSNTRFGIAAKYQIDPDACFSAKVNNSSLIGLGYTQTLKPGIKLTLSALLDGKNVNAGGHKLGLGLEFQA
Kind of experiment: competition of MFF-PTP complex in isolated cell extracts, Flag-MFF1 immunoprecipitation and Western blotting. The class given is biochemical. The note with it: added to isolated cell extracts. The protocol:
Immunoprecipitation (IP). Cells were harvested and lysed with IP buffer (50 mM Tris-HCl, pH 7.5, 150 mM NaCl, 1 mM EDTA) containing 1% CHAPS, EDTA-free Protease Inhibitor Cocktail (Sigma-Aldrich) and Phosphatase Inhibitor Cocktail PhosSTOP (Roche). After sonication, lysates were centrifuged at 15,000×g for 30 min, and cell extracts were incubated with anti-Flag-conjugated beads (Sigma-Aldrich). The precipitates were washed five times, separated by SDS-polyacrylamide gel electrophoresis and processed for Western blotting together with samples representing unbound material and supernatant.
Immunoprecipitation. Cells were harvested and lysed with PLD assay buffer (50 mM HEPES-NaOH, pH 7.3, 3 mM EGTA, 3 mM CaCl2, 3 mM MgCl2, 80 mM KCl) containing 1% CHAPS, EDTA-free Protease Inhibitor Cocktail (Sigma-Aldrich) and Phosphatase Inhibitor Cocktail PhosSTOP (Roche). After sonication, lysates were centrifuged at 15,000×g for 30 min, and cell extracts were incubated with anti-Flag-conjugated beads (Sigma-Aldrich). The precipitates were washed five times, separated by sodium dodecyl sulfate-polyacrylamide gel electrophoresis (SDS-PAGE) and processed for Western blotting.

For experiment [6], the system named is prostate cancer cell types (LNCaP, C4-2B, PC3, DU145). Kind of experiment: cell death of prostate cancer cells, CellTox reactivity. The class given is cell-based, human. The settings on record: PC3 / prostate cancer cells, 0-50 μM.
Procedure: Cell death and apoptosis. […] The various cell-permeable MFF peptides were examined for induction of cytotoxicity using a CellTOX Green cytotoxicity assay kit (Promega). Briefly, 10^4 normal or tumor cells in 100 μl complete medium were plated on white opaque 96-well plate. […] Lysis Solution in the assay kit was used as cytotoxicity control (100% cell death) and treatment with PBS was used as a control for 100% cell viability.
Experiment [7] relates to DU145 or PC3 cells. In words: release of HMGB1 and cyclophilin A from tumor cells, Western blotting. The class given is cell-based, human. The note with it: marker of necrosis.
For experiment [8], the system named is NSCLC A549 and H460 or breast adenocarcinoma MDA-231 and MCF-7 cells. In words: NSCLC and breast adenocarcinoma cell lines, TMRE flow cytometry and CellTox cell death. The settings on record: A549, H460, MDA-231, MCF-7 cells, 10-25 μM, TMRE. The class given is cell-based, human. For orientation: Flow cytometry measures light scatter and fluorescence of single cells or particles in a stream.

Peptide text beside a SMILES is read from it.

As for `CC[C@H](C)[C@H](NC(=O)CNC(=O)[C@H](CCCNC(=N)N)NC(=O)[C@H](C)NC(=O)[C@@H](N)CO)C(=O)N[C@@H](CC(C)C)C(=O)N[C@@H](CO)C(=O)N[C@@H](CC(C)C)C(=O)N[C@H](C(=O)N[C@@H](CCC(N)=O)C(=O)N[C@@H](CO)C(=O)N[C@@H](CO)C(=O)N[C@H](C(=O)N[C@@H](CCCNC(=N)N)C(=O)N[C@@H](CCCNC(=N)N)C(=O)N[C@@H](C)C(=O)N[C@@H](Cc1ccc(O)cc1)C(=O)N[C@@H](CCC(N)=O)C(=O)N[C@@H](CCC(N)=O)C(=O)N[C@H](C(=O)N[C@@H](CC(C)C)C(=O)O)[C@@H](C)CC)[C@@H](C)O)[C@@H](C)CC` [MFF peptide #8-11] (H-SARGILSLIQSSTRRAYQQIL-OH), the Kd in experiment [1] was around 12 µM.

Turning to “AEMAEISRIQYEMEYTEGISQRMRVP (MFF-Derived; Peptide #1) [MFF #1]”, in experiment [2], the “cytochrome c release from tumor cells” value is listed as “had no effect”.

On to “DGANLSSARGILSLIQSSTRRAYQQIL (MFF Deletion; Peptide 8 #6) [peptide #8 variant #6]”, for which, in experiment [3], the “depolarization of isolated tumor (PC3) mitochondria” value (shortened to “depolarization of isolated tumor”) is recorded as “depolarized isolated tumor mitochondria”.

“DGANLSSARGILSLIQSSTRRAYQQILDVL (MFF-Derived; Peptide #8) [MFF peptide #8]”: the “depolarization of mitochondria of normal BPH-1 cells” value in experiment [4] is reported as “did not depolarize”. Besides, the “depolarization of isolated tumor” value in experiment [3] is listed as “depolarized tumor mitochondria”. The “disruption of the interaction between MFF and VDAC or HK-I” value in experiment [5] was “disrupting the interaction between MFF and VDAC or HK-I”.

Regarding “MFF peptide #8-11 containing the double mutation R225D/R236D (DD): cell-permeable MFF peptide #8-11 mutant containing the double mutation R225D/R236D (DD) (RQIKIWFQNRRMKSADGILSLIQSSTDRAYQQIL)”, the figures for the “tumor cell death / viability” value in experiment [6] and in experiment [6] (listed as DD) were “did not affect tumor cell viability” and “entirely lost the ability to induce tumor (PC3) cell death”, respectively. For the same compound, the “HMGB1 release from tumor cells” value is recorded as “had no effect on HMGB1 release” in experiment [7] and “did not induce HMGB1 release” in experiment [7] (listed as MFF-DD mutant peptide #8-11).

Consider “NLSSARGILSLIQSSTRRAYQQILDVL (MFF Deletion; Peptide 8 #1) [peptide #8 variant #1]”, for which the “depolarization of isolated tumor” value in experiment [3] is reported as “depolarized isolated tumor mitochondria”.

On to “SARGILSLIQSSTRRAYQQILDVL (MFF Deletion; Peptide 8 #2) [peptide #8 variant #2]”, for which the “depolarization of isolated tumor” value in experiment [3] is on record as “depolarized isolated tumor mitochondria”.

As for “SSQLRYLARSQRITIQLIAGS (MFF Scramble; Peptide 8 #11) [scrambled sequence]”, the “binding to human recombinant VDAC by ITC” value in experiment [1] is recorded as “ineffective”. Further, the mitochondrial membrane potential result in experiment [8] is given as “not”.
